Experimental findings from PubChem BioAssay (NCI) are described below.

Test systems include KM12 colon; LOX IMVI melanoma; SW-620 colon; HCT-116 colon; RPMI-8226 leukemia; SK-OV-3 ovarian; NCI-H23 lung; SK-MEL-5 melanoma; HCC-2998 colon; SF-268 CNS; UACC-257 melanoma; HT29 colon.
Assay in all cases: NCI-60 cell line screen, 48 h

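Briefly, cells in 96-well plates were exposed to five compound concentrations for 48 h, and endpoints were estimated by linear interpolation. At the GI50, growth is halved. TGI denotes the concentration required for complete inhibition of growth.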 Some results are limits rather than exact numbers.

Turning to `Oc1ccc(NCn2c(=S)sc3ccccc32)cc1`, the TGI with KM12 colon, in the assay with LOX IMVI melanoma, with SW-620 colon, in the assay on HCT-116 colon, with RPMI-8226 leukemia and in the assay with SK-OV-3 ovarian was greater than 100 µM each time. For the same molecule, the TGI in the assay on NCI-H23 lung, in the assay with SK-MEL-5 melanoma, with HCC-2998 colon, in the assay with SF-268 CNS, in the assay with UACC-257 melanoma and in the assay on HT29 colon was greater than 100 µM throughout.

On to `CON(C)C(=O)C(Cc1ccccc1)NC(=O)OCc1ccccc1` (stereo not drawn), for which the TGI in the assay on KM12 colon, with SW-620 colon, with HCT-116 colon, with RPMI-8226 leukemia, with SK-OV-3 ovarian and in the assay on NCI-H23 lung was greater than 100 µM in each case. Moreover, the TGI with SK-MEL-5 melanoma, with HCC-2998 colon, in the assay with SF-268 CNS, in the assay with UACC-257 melanoma and in the assay with HT29 colon was greater than 100 µM in each case.

`CO[C@](C(=O)OC[C@H]1[C@@H](COC(C)=O)[C@@H]2O[C@H]1c1cc3c(cc12)OCO3)(c1ccccc1)C(F)(F)F`: the TGI in the assay on KM12 colon was greater than 100 µM; in the assay with SW-620 colon, greater than 100 µM; in the assay on HCT-116 colon, greater than 100 µM; with RPMI-8226 leukemia, 38.7 µM; in the assay on SK-OV-3 ovarian it was greater than 100 µM; in the assay on NCI-H23 lung, greater than 100 µM. Besides, the TGI with SK-MEL-5 melanoma was greater than 100 µM; in the assay with HCC-2998 colon it was 71.9 µM; in the assay with SF-268 CNS it was 77.1 µM; in the assay on UACC-257 melanoma, greater than 100 µM; in the assay with HT29 colon, greater than 100 µM.

In the case of `CCCCCCOc1ccc(/C=N/Nc2cc(C)nc3ccc(Cl)cc23)cc1`, the GI50 is 1.67 µM in the assay on KM12 colon; 1.26 µM with LOX IMVI melanoma; 1.7 µM in the assay on SK-OV-3 ovarian; 1.88 µM in the assay with NCI-H23 lung; 1.69 µM with SK-MEL-5 melanoma; 1.93 µM with HCC-2998 colon. The GI50 with UACC-257 melanoma was 1.61 µM; with HT29 colon, 1.59 µM. The TGI in the assay with KM12 colon came to 3.38 µM; in the assay with LOX IMVI melanoma it was 2.57 µM; with SK-OV-3 ovarian, 3.11 µM; with NCI-H23 lung, 3.54 µM; with SK-MEL-5 melanoma it was 3.06 µM; in the assay on HCC-2998 colon, 3.45 µM. The TGI in the assay on UACC-257 melanoma is 3.26 µM; in the assay with HT29 colon, 3.09 µM.

Take `CCn1cnc2c(=S)nc(N)[nH]c21`: the TGI in the assay with KM12 colon, with LOX IMVI melanoma, in the assay on SW-620 colon, with HCT-116 colon, in the assay on RPMI-8226 leukemia and in the assay with SK-OV-3 ovarian was greater than 100 µM in each case. Further, the TGI with NCI-H23 lung, in the assay on HCC-2998 colon, with SF-268 CNS, in the assay with UACC-257 melanoma and with HT29 colon was greater than 100 µM in each case.

In the case of `O=C(CC1Sc2ccccc2NC1=O)Nc1ccccc1[N+](=O)[O-]` (stereo not drawn), the TGI in the assay on KM12 colon, with LOX IMVI melanoma, in the assay on SW-620 colon, in the assay on HCT-116 colon, in the assay on RPMI-8226 leukemia and in the assay with SK-OV-3 ovarian was greater than 100 µM each time. In addition, the TGI with NCI-H23 lung, in the assay on SK-MEL-5 melanoma, in the assay with HCC-2998 colon, in the assay with SF-268 CNS, in the assay with UACC-257 melanoma and in the assay on HT29 colon was greater than 100 µM each time.

As for `Cc1ccc(C(=O)OC(C(=O)O)C(OC(=O)c2ccc(C)cc2)C(=O)O)cc1` (stereo not drawn) (tested in a mixture with another compound), the TGI came to 19 µM in the assay on KM12 colon; 20.6 µM in the assay with LOX IMVI melanoma; 10.2 µM in the assay with SW-620 colon; 13.8 µM in the assay with HCT-116 colon; 9.23 µM in the assay with RPMI-8226 leukemia; 28.2 µM in the assay with SK-OV-3 ovarian. Further, the TGI in the assay with NCI-H23 lung turned out to be 12.8 µM; with SK-MEL-5 melanoma, 7.72 µM; in the assay with HCC-2998 colon, 10.1 µM; in the assay with SF-268 CNS, 28.3 µM; in the assay on UACC-257 melanoma, 13.7 µM; in the assay with HT29 colon it was 10.2 µM.

Consider `O=C1OC(c2ccccc2)=N/C1=C\c1ccc([N+](=O)[O-])cc1`, for which the TGI in the assay with KM12 colon, in the assay on LOX IMVI melanoma, with SW-620 colon, in the assay on HCT-116 colon, in the assay with RPMI-8226 leukemia and in the assay on SK-OV-3 ovarian was greater than 100 µM in each case. The TGI in the assay on NCI-H23 lung, in the assay on SK-MEL-5 melanoma, with HCC-2998 colon, with SF-268 CNS, with UACC-257 melanoma and in the assay with HT29 colon was greater than 100 µM in each case.

Turning to `CCOC(=O)c1csc(NC(=O)CN2CCCC2)n1`, the TGI with KM12 colon, in the assay on LOX IMVI melanoma, with SW-620 colon, with RPMI-8226 leukemia, with SK-OV-3 ovarian and with NCI-H23 lung was greater than 100 µM in each case. Further, the TGI in the assay with SK-MEL-5 melanoma, with HCC-2998 colon, in the assay with SF-268 CNS, with UACC-257 melanoma and in the assay on HT29 colon was greater than 100 µM throughout.
